# Where “and” joins values, the source holds several entries; their conditions need not be identical. Equal values may be shown once.
# System: HCT116 cells
# Test: H2DCFDA detection of cellular ROS
# Assay type: cell-based, human
# Conditions: 20 μM, 3 hour, WT HCT116
# Experimental: To establish direct target engagement and cell membrane permeability, a cellular thermal shift assay (CETSA) was carried out, using leading QR2is YB’s-537, 800, and 808. Following a 1 hour preincubation with 5 μM of the QR2is or vehicle, thermal aggregation curves (Taggs) of QR2 expressed in HEK293T were measured in increasing temperatures. All QR2is increased QR2 thermal stability compared with vehicle (Supplemental Figure 2A). Based on the Tagg curves we selected 73°C for isothermal dose-response fingerprint (IDTRF) experiments (Supplemental Figure 2B). The ITDRF allowed the relative quantification of the binding of each of the QR2is to QR2, measured as the EC50 (Figure 3A). […] We evaluated the safety of the QR2is using cell toxicity and viability assays. […] Cell viability was assessed by XTT assay in HEK239T cells, using a dose response, with 3- or 24-hour incubations of the leading QR2is. […] We then assessed WT HCT116 cells by immunoblot (Supplemental Figure 2, C and D), after being treated with YB-800 (2 μM) for 4 consecutive days. […]
# The cells wer e har ves t ed a nd resuspended in 1% cl ear m e di um ( DM EM – with no phenol red, suppl em ent ed with 1% FBS, 1% L-Glutamine and 1% Penicillin-Streptomycin). […] The plate wa s then incubated in the dark at 37°C f or 3 h, before reading in a Tecan M200 Pro florescence microplate reader, using wavelengths Ex/Em = 485 nm / 535 nm . […]
compound,measurement,value
Cc1ccc(-c2cn3cccc(C)c3n2)cc1S(=O)(=O)N1CCC(C)CC1 [YB-800],ROS levels (replicates),0.005141 and -0.1557 and -0.2104 and -0.08593 and -0.04485

# From PMC10541198, “Specific quinone reductase 2 inhibitors reduce metabolic burden and reverse Alzheimer’s disease phenotype in mice” (The Journal of Clinical Investigation, 2023)
